Reference: publication PMC5218480 (PLoS ONE, 2017)

System: MV-4-11 cells
Assay: Gene expression microarray analysis (Affymetrix PrimeView) and GSEA
Type: cell-based, human
Set-up: RFU PODN (11730768_x_at) / Fold change /veh PODN (11730768_x_at) / RFU LINC00158 (11744669_a_at) / Fold change /veh LINC00158 (11744669_a_at) / RFU DUSP10 (11751237_a_at) / Fold change /veh DUSP10 (11751237_a_at) / RFU ID3 (11757404_x_at) / Fold change /veh ID3 (11757404_x_at) / RFU PLEKHG5 (11737974_s_at) / Fold change /veh PLEKHG5 (11737974_s_at) / RFU LRRC4B (11730491_at) / Fold change /veh LRRC4B (11730491_at) / RFU GIMAP4 (11747438_a_at) / Fold change /veh GIMAP4 (11747438_a_at) / RFU KRT8 (11758183_x_at) / Fold change /veh KRT8 (11758183_x_at) / RFU CNN1 (11734310_a_at) / Fold change /veh CNN1 (11734310_a_at) / RFU VPS37D (11726825_at) / Fold change /veh VPS37D (11726825_at) / RFU C10orf10 (11716522_x_at) / Fold change /veh C10orf10 (11716522_x_at) / RFU KIR2DL2 /// KIR2DL4 /// KIR2DL5A /// KIR2DL5B /// KIR2DS1 /// KIR2DS2 /// KIR2DS3 /// KIR2DS4 /// KIR3DL3 /// KIR3DL3 /// KIR3DS1 (11738374_at) / Fold change /veh KIR2DL2 /// KIR2DL4 /// KIR2DL5A /// KIR2DL5B /// KIR2DS1 /// KIR2DS2 /// KIR2DS3 /// KIR2DS4 /// KIR3DL3 /// KIR3DL3 /// KIR3DS1 (11738374_at) / RFU C1QL1 (11718748_at) / Fold change /veh C1QL1 (11718748_at) / RFU TMPRSS4 (11747572_a_at) / Fold change /veh TMPRSS4 (11747572_a_at) / RFU HAMP (11756126_x_at) / Fold change /veh HAMP (11756126_x_at) / RFU RNFT2 (11725882_a_at) / Fold change /veh RNFT2 (11725882_a_at) / RFU NR4A2 (11747474_a_at) / Fold change /veh NR4A2 (11747474_a_at) / RFU ABCC12 (11746883_a_at) / Fold change /veh ABCC12 (11746883_a_at) / RFU TMEM136 (11760407_x_at) / Fold change /veh TMEM136 (11760407_x_at) / RFU CLDN22 /// WWC2 (11732394_at) / Fold change /veh CLDN22 /// WWC2 (11732394_at) / RFU HLA-DPB1 (11760878_x_at) / Fold change /veh HLA-DPB1 (11760878_x_at) / RFU SPINT1 (11716480_a_at) / Fold change /veh SPINT1 (11716480_a_at) / RFU GAP43 (11754022_s_at) / Fold change /veh GAP43 (11754022_s_at) / RFU A4GNT (11735810_at) / Fold change /veh A4GNT (11735810_at) / RFU PRB3 (11715151_x_at) / Fold change /veh PRB3 (11715151_x_at) / RFU TUBB4B (11761932_at) / Fold change /veh TUBB4B (11761932_at) / RFU CAPN14 (11732068_a_at) / Fold change /veh CAPN14 (11732068_a_at) / RFU TMCC2 (11721928_a_at) / Fold change /veh TMCC2 (11721928_a_at) / RFU IRGQ (11745062_a_at) / Fold change /veh IRGQ (11745062_a_at) / RFU FAM174B (11720279_a_at) / Fold change /veh FAM174B (11720279_a_at) / RFU TMPRSS4 (11748680_a_at) / Fold change /veh TMPRSS4 (11748680_a_at) / RFU FAM212B (11763350_a_at) / Fold change /veh FAM212B (11763350_a_at) / RFU PLEKHG5 (11743358_a_at) / Fold change /veh PLEKHG5 (11743358_a_at) / RFU ZSCAN30 (11745921_a_at) / Fold change /veh ZSCAN30 (11745921_a_at) / RFU CMKLR1 (11741424_a_at) / Fold change /veh CMKLR1 (11741424_a_at) / RFU LOC101060620 /// MAPK8IP1 (11723275_at) / Fold change /veh LOC101060620 /// MAPK8IP1 (11723275_at) / RFU SPTSSB (11747773_x_at) / Fold change /veh SPTSSB (11747773_x_at) / RFU PRSS12 (11739890_at) / Fold change /veh PRSS12 (11739890_at) / RFU BIN1 (11741810_x_at) / Fold change /veh BIN1 (11741810_x_at) / RFU WNT11 (11732464_a_at) / Fold change /veh WNT11 (11732464_a_at) / RFU C10orf10 (11716521_a_at) / Fold change /veh C10orf10 (11716521_a_at) / RFU C5orf56 (11738089_at) / Fold change /veh C5orf56 (11738089_at) / RFU CYB561 (11721691_x_at) / Fold change /veh CYB561 (11721691_x_at) / RFU ANKRD19P (11752326_a_at) / Fold change /veh ANKRD19P (11752326_a_at) / RFU OR2T12 /// OR2T33 /// OR2T8 (11738714_s_at) / Fold change /veh OR2T12 /// OR2T33 /// OR2T8 (11738714_s_at) / RFU VCAN (11748164_a_at) / Fold change /veh VCAN (11748164_a_at) / RFU JSRP1 (11732532_at) / Fold change /veh JSRP1 (11732532_at) / RFU KRTAP10-11 (11738290_x_at) / Fold change /veh KRTAP10-11 (11738290_x_at) / RFU MYO3A (11730013_a_at) / Fold change /veh MYO3A (11730013_a_at) / RFU EBF3 (11725865_a_at) / Fold change /veh EBF3 (11725865_a_at) / RFU CAMK2N1 (11719241_x_at) / Fold change /veh CAMK2N1 (11719241_x_at) / RFU C5orf56 (11738088_a_at) / Fold change /veh C5orf56 (11738088_a_at) / RFU OLFML3 (11715873_a_at) / Fold change /veh OLFML3 (11715873_a_at) / RFU LOC100653217 /// NTM (11731650_a_at) / Fold change /veh LOC100653217 /// NTM (11731650_a_at) / RFU MAPK11 (11762145_a_at) / Fold change /veh MAPK11 (11762145_a_at) / RFU FIZ1 (11724087_x_at) / Fold change /veh FIZ1 (11724087_x_at) / RFU OASL (11726364_x_at) / Fold change /veh OASL (11726364_x_at) / RFU SOX15 (11748057_x_at) / Fold change /veh SOX15 (11748057_x_at) / RFU CD79A (11719716_a_at) / Fold change /veh CD79A (11719716_a_at) / RFU HIST1H1D (11736915_at) / Fold change /veh HIST1H1D (11736915_at) / RFU CASKIN2 (11723855_a_at) / Fold change /veh CASKIN2 (11723855_a_at) / RFU LOC730098 (11760151_x_at) / Fold change /veh LOC730098 (11760151_x_at) / RFU OR4N2 (11742367_at) / Fold change /veh OR4N2 (11742367_at) / RFU PRRT2 (11749266_a_at) / Fold change /veh PRRT2 (11749266_a_at) / RFU SNX32 (11753110_a_at) / Fold change /veh SNX32 (11753110_a_at) / RFU CDHR5 (11726645_a_at) / Fold change /veh CDHR5 (11726645_a_at) / RFU RCAN1 (11760418_a_at) / Fold change /veh RCAN1 (11760418_a_at) / RFU FAM167A (11723789_a_at) / Fold change /veh FAM167A (11723789_a_at) / RFU FAM26E (11764081_at) / Fold change /veh FAM26E (11764081_at) / RFU ISYNA1 (11749810_s_at) / Fold change /veh ISYNA1 (11749810_s_at) / RFU ACY1 (11761880_at) / Fold change /veh ACY1 (11761880_at) / RFU 11764098_at / Fold change /veh 11764098_at / RFU SAMD14 (11745864_x_at) / Fold change /veh SAMD14 (11745864_x_at) / RFU NPB (11741838_a_at) / Fold change /veh NPB (11741838_a_at) / RFU TMPRSS6 (11731388_a_at) / Fold change /veh TMPRSS6 (11731388_a_at) / RFU KRTAP10-2 (11738614_at) / Fold change /veh KRTAP10-2 (11738614_at) / RFU ARHGAP8 /// PRR5-ARHGAP8 (11727945_x_at) / Fold change /veh ARHGAP8 /// PRR5-ARHGAP8 (11727945_x_at) / RFU KRTAP5-7 /// NADSYN1 (11734609_at) / Fold change /veh KRTAP5-7 /// NADSYN1 (11734609_at) / RFU RASL12 (11751679_a_at) / Fold change /veh RASL12 (11751679_a_at) / RFU CDKN2B (11736163_a_at) / Fold change /veh CDKN2B (11736163_a_at) / RFU PRF1 (11729649_at) / Fold change /veh PRF1 (11729649_at) / RFU, ZNF638 /// ZNF638-IT1 / Fold change vs veh, ZNF638 /// ZNF638-IT1 / RFU, PANK3 / Fold change vs veh, PANK3 / RFU, SH3YL1 / Fold change vs veh, SH3YL1 / RFU, ZEB2 / Fold change vs veh, ZEB2 / RFU, NRIP1 / Fold change vs veh, NRIP1 / RFU, PTTG1IP / Fold change vs veh, PTTG1IP / RFU, CAPN2 / Fold change vs veh, CAPN2 / RFU, MED14 / Fold change vs veh, MED14 / RFU, SNORA58 / Fold change vs veh, SNORA58 / RFU, C1orf63 / Fold change vs veh, C1orf63 / RFU, LRRFIP1 / Fold change vs veh, LRRFIP1 / RFU, NDUFAF7 / Fold change vs veh, NDUFAF7 / RFU, SLC12A2 / Fold change vs veh, SLC12A2 / RFU, IBTK / Fold change vs veh, IBTK / RFU, ESF1 / Fold change vs veh, ESF1 / Fold change vs veh, TMEM50B / RFU, TAOK1 / Fold change vs veh, TAOK1 / RFU, ACBD3 / Fold change vs veh, ACBD3 / RFU, TMA16 / Fold change vs veh, TMA16 / RFU, RWDD3 / Fold change vs veh, RWDD3 / RFU, BCAT1 / Fold change vs veh, BCAT1 / RFU, EDEM3 / Fold change vs veh, EDEM3 / RFU, TMEM33 / Fold change vs veh, TMEM33 / RFU, WDR75 / Fold change vs veh, WDR75 / RFU, AHCTF1 / Fold change vs veh, AHCTF1 / RFU, TFRC / Fold change vs veh, TFRC / RFU, ZDHHC17 / Fold change vs veh, ZDHHC17 / RFU, NOM1 / Fold change vs veh, NOM1 / RFU, ARL8B / Fold change vs veh, ARL8B / RFU, ZBTB11 / Fold change vs veh, ZBTB11 / RFU, TAMM41 / Fold change vs veh, TAMM41 / RFU, KIAA1704 /// LOC100996395 / Fold change vs veh, KIAA1704 /// LOC100996395 / RFU, ING1 / Fold change vs veh, ING1 / RFU, TRMT61B / Fold change vs veh, TRMT61B / RFU, FUBP3 / Fold change vs veh, FUBP3 / RFU, TP53 / Fold change vs veh, TP53 / RFU, TNKS2 / Fold change vs veh, TNKS2 / RFU, ZFP14 / Fold change vs veh, ZFP14 / RFU, ACTR2 / Fold change vs veh, ACTR2 / RFU, PPP3R1 / Fold change vs veh, PPP3R1 / RFU, PIK3R1 / Fold change vs veh, PIK3R1 / RFU, HNRNPA1 / Fold change vs veh, HNRNPA1 / RFU, RNF170 / Fold change vs veh, RNF170 / RFU, ZNF28 / Fold change vs veh, ZNF28 / RFU, RNGTT / Fold change vs veh, RNGTT / RFU, OGT / Fold change vs veh, OGT / RFU, BRD1 / Fold change vs veh, BRD1 / RFU, MARS / Fold change vs veh, MARS / RFU, ZNF655 / Fold change vs veh, ZNF655 / RFU, FAHD1 / Fold change vs veh, FAHD1 / RFU, BDP1 / Fold change vs veh, BDP1 / RFU, LRRCC1 / Fold change vs veh, LRRCC1 / RFU, ARID1A / Fold change vs veh, ARID1A / RFU, ZNF146 / Fold change vs veh, ZNF146 / RFU, ZNF330 / Fold change vs veh, ZNF330 / RFU, GPN3 / Fold change vs veh, GPN3 / RFU, C9orf123 / Fold change vs veh, C9orf123 / RFU, N4BP2L2 / Fold change vs veh, N4BP2L2 / RFU, ARFIP1 / Fold change vs veh, ARFIP1 / RFU, FAM179B / Fold change vs veh, FAM179B / RFU, BCL10 / Fold change vs veh, BCL10 / RFU, UHRF1BP1L / Fold change vs veh, UHRF1BP1L / RFU, BET1 / Fold change vs veh, BET1 / RFU, CNOT2 / Fold change vs veh, CNOT2 / RFU, ZNF268 / Fold change vs veh, ZNF268 / Fold change vs veh, ZNF507 / RFU, DGCR2 / Fold change vs veh, DGCR2 / RFU, WDSUB1 / Fold change vs veh, WDSUB1 / Fold change vs veh, HSP90B1 /// MIR3652 / RFU, ADSS / Fold change vs veh, ADSS / RFU, GK / Fold change vs veh, GK / RFU, ZNF148 / Fold change vs veh, ZNF148 / RFU, TAF9 / Fold change vs veh, TAF9 / RFU, SLC1A5 / Fold change vs veh, SLC1A5 / RFU, SLMO2 / Fold change vs veh, SLMO2 / RFU, ABCC4 / Fold change vs veh, ABCC4 / RFU, LOC101060439 /// RAP1B / Fold change vs veh, LOC101060439 /// RAP1B / RFU, RFX7 / Fold change vs veh, RFX7 / RFU, GTPBP10 / Fold change vs veh, GTPBP10 / RFU, CNEP1R1 / Fold change vs veh, CNEP1R1 / RFU, BIVM-ERCC5 /// ERCC5 / Fold change vs veh, BIVM-ERCC5 /// ERCC5 / RFU, ILF3 / Fold change vs veh, ILF3 / RFU 11762660_at / Fold change /veh 11762660_at / RFU VCAN (11757783_s_at) / Fold change /veh VCAN (11757783_s_at) / RFU DDX43 (11728927_at) / Fold change /veh DDX43 (11728927_at) / RFU KRT8 (11758188_x_at) / Fold change /veh KRT8 (11758188_x_at) / RFU NKD1 (11759106_at) / Fold change /veh NKD1 (11759106_at) / RFU SRD5A1 (11742802_a_at) / Fold change /veh SRD5A1 (11742802_a_at) / RFU TPSAB1 /// TPSB2 (11721975_s_at) / Fold change /veh TPSAB1 /// TPSB2 (11721975_s_at) / RFU GSTM3 (11746129_a_at) / Fold change /veh GSTM3 (11746129_a_at) / RFU IL23R (11737362_x_at) / Fold change /veh IL23R (11737362_x_at) / RFU TMEM51 (11727254_a_at) / Fold change /veh TMEM51 (11727254_a_at) / RFU PIWIL2 (11732686_x_at) / Fold change /veh PIWIL2 (11732686_x_at) / RFU ORM1 (11744905_x_at) / Fold change /veh ORM1 (11744905_x_at) / RFU CCDC152 (11743942_at) / Fold change /veh CCDC152 (11743942_at) / RFU ECM1 (11717891_a_at) / Fold change /veh ECM1 (11717891_a_at) / RFU IL23R (11748794_a_at) / Fold change /veh IL23R (11748794_a_at) / RFU TNFAIP8L3 (11732012_x_at) / Fold change /veh TNFAIP8L3 (11732012_x_at) / RFU MBOAT4 (11741988_at) / Fold change /veh MBOAT4 (11741988_at) / RFU 11764193_at / Fold change /veh 11764193_at / RFU TMEM53 (11763286_at) / Fold change /veh TMEM53 (11763286_at) / RFU MAGEB2 (11727129_at) / Fold change /veh MAGEB2 (11727129_at) / RFU TMEM200A (11744735_a_at) / Fold change /veh TMEM200A (11744735_a_at) / RFU CCDC152 (11751479_a_at) / Fold change /veh CCDC152 (11751479_a_at) / RFU FAM211A (11726209_a_at) / Fold change /veh FAM211A (11726209_a_at) / RFU RGS16 (11746705_a_at) / Fold change /veh RGS16 (11746705_a_at) / RFU VCAN (11755009_s_at) / Fold change /veh VCAN (11755009_s_at) / RFU RHOB (11743442_s_at) / Fold change /veh RHOB (11743442_s_at) / RFU RGS16 (11720943_a_at) / Fold change /veh RGS16 (11720943_a_at) / RFU RGS16 (11720944_at) / Fold change /veh RGS16 (11720944_at) / RFU, VPS4B / Fold change vs veh, VPS4B / RFU, CREB1 / Fold change vs veh, CREB1 / RFU, DNAJC13 / Fold change vs veh, DNAJC13 / RFU, GNAQ / Fold change vs veh, GNAQ / RFU, CDK5R1 / Fold change vs veh, CDK5R1 / RFU, ZRANB3 / Fold change vs veh, ZRANB3 / RFU, CUL4A / Fold change vs veh, CUL4A / RFU, CCNY / Fold change vs veh, CCNY / RFU, UFL1 / Fold change vs veh, UFL1 / RFU, COG3 / Fold change vs veh, COG3 / RFU, DIAPH2 / Fold change vs veh, DIAPH2 / RFU, SKA2 / Fold change vs veh, SKA2 / RFU, AFF3 / Fold change vs veh, AFF3 / RFU, LMF1 / Fold change vs veh, LMF1 / RFU, IPO11 / Fold change vs veh, IPO11 / RFU, DFFB / Fold change vs veh, DFFB / RFU, FOXP1 / Fold change vs veh, FOXP1 / RFU, CARD8 / Fold change vs veh, CARD8 / RFU, STRN3 / Fold change vs veh, STRN3 / RFU, ADK / Fold change vs veh, ADK / RFU, RASSF2 / Fold change vs veh, RASSF2 / RFU, WIPF1 / Fold change vs veh, WIPF1 / RFU, LARP1B / Fold change vs veh, LARP1B / RFU, RASA1 / Fold change vs veh, RASA1 / RFU, RB1 / Fold change vs veh, RB1 / RFU, PPFIA1 / Fold change vs veh, PPFIA1 / RFU, MAT2A / Fold change vs veh, MAT2A / RFU, CCT5 / Fold change vs veh, CCT5 / RFU, WDR92 / Fold change vs veh, WDR92 / RFU, CUX1 / Fold change vs veh, CUX1 / RFU, TTC7A / Fold change vs veh, TTC7A / RFU, TMEM135 / Fold change vs veh, TMEM135 / RFU, DEPTOR / Fold change vs veh, DEPTOR / RFU, CPM / Fold change vs veh, CPM / RFU, DNAJB6 / Fold change vs veh, DNAJB6 / RFU, CACNA2D3 / Fold change vs veh, CACNA2D3 / RFU, DTX4 / Fold change vs veh, DTX4 / RFU, TFCP2 / Fold change vs veh, TFCP2 / RFU, GMCL1 /// GMCL1P1 / Fold change vs veh, GMCL1 /// GMCL1P1 / RFU, AEBP2 / Fold change vs veh, AEBP2 / RFU, SNHG1 /// SNORD22 /// SNORD25 /// SNORD26 /// SNORD27 /// SNORD28 /// SNORD29 /// SNORD31 / Fold change vs veh, SNHG1 /// SNORD22 /// SNORD25 /// SNORD26 /// SNORD27 /// SNORD28 /// SNORD29 /// SNORD31 / Fold change (Aza/veh), C12orf56 (ProbeSet 11735607_a_at) / Fold change (ACY-1035/veh), C12orf56 (ProbeSet 11735607_a_at) / Fold change (Aza/veh), FGFR1OP (ProbeSet 11751329_s_at) / Fold change (ACY-1035/veh), FGFR1OP (ProbeSet 11751329_s_at) / Fold change (Aza/veh), VPS36 (ProbeSet 11739960_a_at) / Fold change (ACY-1035/veh), VPS36 (ProbeSet 11739960_a_at) / RFU SYPL1 (11715823_x_at) / Fold change /veh SYPL1 (11715823_x_at) / RFU IGFBP7 (11715501_s_at) / Fold change /veh IGFBP7 (11715501_s_at) / RFU REEP3 (11722064_at) / Fold change /veh REEP3 (11722064_at) / RFU IGLL1 (11728026_x_at) / Fold change /veh IGLL1 (11728026_x_at): dose or concentration left out as unconfirmed
Details: ProbeSet 11723475_a_at; LIST B

In the case of `Nc1ccc(-c2cccs2)cc1NC(=O)c1ccc2c(c1)cc(C1CC1)n2CCN1CCOCC1` [ACY-1035], the “RFU, TRMT61B” value was 136.33 RFU.
